Results taken from publication PMC6445162, “Effects of NS2B-NS3 protease and furin inhibition on West Nile and Dengue virus replication” (Journal of Enzyme Inhibition and Medicinal Chemistry, 2017).
Peptide text beside a SMILES is read from it.

B1: Phac-Lys-Lys-Arg-Gly-Gly-NH2 (peptide)
peptide: KKRGG
HELM: PEPTIDE1{[O=C(Cc1ccccc1)[*:2]].K.K.R.G.G.[am]}$$$$V2.0
SMILES: N=C(N)NCCC[C@H](NC(=O)[C@H](CCCCN)NC(=O)[C@H](CCCCN)NC(=O)Cc1ccccc1)C(=O)NCC(=O)NCC(N)=O

Tests used:
[1] = target: covalently linked WNV NS2B-NS3 protease construct (West Nile virus) (UniProt P06935); assay: enzyme inhibition kinetics (Ki from Dixon plots, fluorogenic substrate); WNV NS2B-NS3 construct ~4 nM in assay; substrate Phac-Leu-Lys-Lys-Arg-AMC 50, 100 and 200 µM (KM = 47.5 µM); 100 mM Tris pH 8.5, 20% glycerol, 0.01% Triton X-100; room temperature; Ki the average of at least two measurements
WNV NS2B-NS3 protease = target: T1, WNV NS2B-NS3 protease (West Nile virus, UniProt P06935); assay: Enzyme kinetic inhibition of WNV NS2B-NS3 protease construct (Dixon plot); assay type: biochemical; settings: covalently linked WNV NS2B-NS3 construct; substrate Phac-Leu-Lys-Lys-Arg-AMC; Dixon plots, average of at least two measurements
T1 construct: WNV NS2B 40-amino acid cofactor together with the NS3 protease domain
Description: (§1) All measurements were performed at room temperature in black flat-bottom 96-well plates (Nunc, Langenselbold, Germany) using microplate readers (Tecan Safire^2, λex = 380 nm and λem = 460 nm, Tecan Group Ltd., Männedorf, Switzerland or Fluoroskan Ascent type 374, λex = 355 nm and λem = 460 nm; Thermo Fisher Scientific, Vantaa, Finland). The assays with the flavivirus protease constructs were performed with 125 μl buffer (100 mM Tris pH 8.5 containing 20% glycerol, 0.01% Triton X-100, and the inhibitor), 50 μl substrate solution, and were started by addition of 25 μl enzyme solution (total assay volume 200 μl).
For measurements with the covalently linked WNV NS2B-NS3 protease construct (∼4 nM in assay) the substrate Phac-Leu-Lys-Lys-Arg-AMC ×3 TFA (50 µM, 100 µM and 200 µM in assay, KM = 47.5 µM) was used, as described previously.
(§2) The DENV serotype 2 NS2B-NS3 protease construct was prepared from an identical clone as described by D’Arcy et al.[26] The purification of the protease was carried out in a buffer with high ion-strength and low pH value, in the absence of glycerol (20 mM Bis-Tris, 500 mM NaCl, pH 6.3), in order to prevent autolysis of the enzyme. Purification was performed by using a 5 ml HisTrapTM FF column (GE Healthcare) and subsequently, a HiLoad 16/60 SuperdexTM 75 column (GE Healthcare). The assays with the DENV-2 NS2B-NS3^pr° (∼39 nM in well) were performed with the substrate Phac-Lys-Arg-Arg-AMC ×3 TFA (125 µM, 62.5 µM and 31.25 µM in assay, KM = 60 µM). All Ki values were obtained from Dixon plots[27] and are the average of at least two measurements. Due to the weak potency of most compounds against the DENV-2 NS2B-NS3 protease construct, only the percentage of inhibition at a constant inhibitor concentration of 100 µM in the presence of 125 µM substrate was determined.

[2] = target: T2, DENV serotype 2 NS2B-NS3 protease (Dengue virus type 2, UniProt P14340); assay: Enzyme kinetic inhibition of DENV-2 NS2B-NS3 protease construct; assay type: biochemical, Dengue virus serotype 2; settings: for inhibition at 100 µM: 100 μM inhibitor in the presence of 125 μM substrate, read-out: % Inhib. (DENV)
T2 construct: The proteolytic activity of WNV and DENV is located in the N-terminal part of its NS3 protein; made in house
Description: as §1, §2

| Molecule | Ki [1] | Ki (WNV NS2B-NS3 protease) | inhibition at 100 µM [2] | also measured |
| --- | --- | --- | --- | --- |
| 3-AMe-Phac-Lys-Lys-Arg-NH2 (peptide) | 0.36 µM | – | – | – |
| 4-OH-Phac-Lys-Lys-Arg-NH2 (peptide) | 0.54 µM | – | – | – |
| 4-GMe-Phac-Lys-Lys-GCMA | – | 0.23 µM | – | Ki ([2]; DENV-2 NS2B-NS3 construct, substrate Phac-Lys-Arg-Arg-AMC, Dixon plots): 67 µM |
| N=C(N)NCCC[C@H](NC(=O)[C@H](CCCCN)NC(=O)[C@H](CCCCN)NC(=O)Cc1cccc(N)c1)C(N)=O [inhibitor 31] | – | 1.2 µM | 27.5% | – |
| 3-NH2-Phac-Lys-Lys-Arg-NH2 (peptide) | 1.2 µM | – | – | – |
| Phac-Lys-Lys-Arg-Tle-NH2 (peptide) | 140 µM | – | – | – |
| C[C@@H](NC(=O)[C@H](CCCNC(=N)N)NC(=O)[C@H](CCCCN)NC(=O)[C@H](CCCCN)NC(=O)Cc1ccccc1)C(N)=O [inhibitor 20] (HELM PEPTIDE1{[O=C(Cc1ccccc1)[*:2]].K.K.R.[dA].[am]}$$$$V2.0) | – | 75 µM | 12% | – |
| N=C(N)NCCC[C@H](NC(=O)[C@H](CCCCN)NC(=O)[C@H](CCCCN)NC(=O)Cc1ccccc1)C(N)=O [inhibitor 27] (HELM PEPTIDE1{[O=C(Cc1ccccc1)[*:2]].K.K.R.[am]}$$$$V2.0) | – | 2.47 µM | 20.8% | – |
| CC(C)(C)[C@H](NC(=O)[C@H](CCCNC(=N)N)NC(=O)[C@H](CCCCN)NC(=O)[C@H](CCCCN)NC(=O)Cc1ccccc1)C(N)=O [inhibitor 22] (HELM PEPTIDE1{[O=C(Cc1ccccc1)[*:2]].K.K.R.[CC(C)(C)[C@H](N[*:1])C(=O)[*:2]].[am]}$$$$V2.0) | – | 140 µM | 6.4% | – |
| 3,4-(Methylenedioxy)-Phac-Lys-Lys-Arg-NH2 (peptide) | 0.68 µM | – | – | – |
| Phac-Lys-Lys-Arg-Ala-NH2 (peptide) | 25 µM | – | – | – |
| 1-Adamantylglycine-Lys-Lys-Arg-NH2 (peptide) | 70 µM | – | – | – |
| N=C(N)NCCC[C@H](NC(=O)[C@H](CCCCN)NC(=O)[C@H](CCCCN)NC(=O)[C@@H](N)C12CC3CC(CC(C3)C1)C2)C(N)=O [inhibitor 44] (HELM PEPTIDE1{[N[C@H](C(=O)[*:2])C12CC3CC(CC(C3)C1)C2].K.K.R.[am]}$$$$V2.0) | – | 70 µM | 14.6% | – |
| N=C(N)NCCC[C@H](NC(=O)[C@H](CCCCN)NC(=O)[C@H](CCCCN)NC(=O)Cc1ccc(CN)cc1)C(N)=O [inhibitor 35] | – | 0.38 µM | 31.7% | – |
| Cyclohexylacetic acid-Lys-Lys-Arg-NH2 (peptide) | 4.8 µM | – | – | – |
| Phac-Lys-Lys-Arg-Pro-NH2 (peptide) | 200 µM | – | – | – |
| Phac-Lys-Lys-Arg-DAla-NH2 (peptide) | 75 µM | – | – | – |
| 1-Adamantylacetic acid-Lys-Lys-Arg-NH2 (peptide) | 13.8 µM | – | – | – |
| N=C(N)NCCC[C@H](NC(=O)[C@H](CCCCN)NC(=O)[C@H](CCCCN)NC(=O)Cc1ccccc1)C(=O)O [inhibitor 28, Phac-Lys-Lys-Arg-OH] (HELM PEPTIDE1{[O=C(Cc1ccccc1)[*:2]].K.K.R}$$$$V2.0) | – | 27 µM | – | – |
| N=C(N)NCCC[C@H](NC(=O)[C@H](CCCCN)NC(=O)[C@H](CCCCN)NC(=O)Cc1ccc(O)cc1)C(N)=O [inhibitor 33] | – | 0.54 µM | 27.5% | – |
| N=C(N)NCCC[C@H](NC(=O)[C@H](CCCCN)NC(=O)[C@H](CCCCN)NC(=O)Cc1ccc(-c2ccccc2)cc1)C(N)=O [inhibitor 34] | – | 0.53 µM | 27.1% | – |
| N=C(N)NCCC[C@H](NC(=O)[C@H](CCCCN)NC(=O)[C@H](CCCCN)NC(=O)CC12CC3CC(CC(C3)C1)C2)C(N)=O [inhibitor 43] | – | 13.8 µM | 24.2% | – |
| 4-Phenyl-Phac-Lys-Lys-Arg-NH2 (peptide) | 0.53 µM | – | – | – |

| Molecule | Ki [1] | Ki (WNV NS2B-NS3 protease) | inhibition at 100 µM [2] | also measured |
| --- | --- | --- | --- | --- |
| N=C(N)NCCC[C@H](NC(=O)[C@H](CCCCN)NC(=O)[C@H](CCCCN)NC(=O)Cc1cccc(CNC(=N)N)c1)C(N)=O [inhibitor 37] | – | 0.18 µM | 32.3% | – |
| Phac-Lys-Lys-Arg-Gaba-NH2 (peptide) | 15 µM | – | – | – |
| 3-GMe-Phac-Lys-Lys-Arg-NH2 (peptide) | 0.18 µM | – | – | – |
| N=C(N)NCCC[C@H](NC(=O)[C@H](CCCCN)NC(=O)[C@H](CCCCN)NC(=O)Cc1ccccc1)C(=O)NCC(N)=O [inhibitor 18] (HELM PEPTIDE1{[O=C(Cc1ccccc1)[*:2]].K.K.R.G.[am]}$$$$V2.0) | – | 2.56 µM | 30.7% | – |
| N=C(N)NCCC[C@H](NC(=O)[C@H](CCCCN)NC(=O)[C@H](CCCCN)NC(=O)Cc1ccccc1)C(=O)NCCCCCC(N)=O [inhibitor 26] (HELM PEPTIDE1{[O=C(Cc1ccccc1)[*:2]].K.K.R.[O=C(CCCCCN[*:1])[*:2]].[am]}$$$$V2.0) | – | 17 µM | – | – |
| N=C(N)NCc1ccc(CC(NC(=O)Cc2ccccc2)C(=O)NC(CCCCN)C(=O)NCC2CCC(NC(=N)N)CC2)cc1 (stereo not drawn) [inhibitor 9] | – | 44 µM | – | – |
| N=C(N)NCCC[C@H](NC(=O)[C@H](CCCCN)NC(=O)[C@H](CCCCN)NC(=O)Cc1ccccc1)C(=O)NCCCC(N)=O [inhibitor 25] (HELM PEPTIDE1{[O=C(Cc1ccccc1)[*:2]].K.K.R.[O=C(CCCN[*:1])[*:2]].[am]}$$$$V2.0) | – | 15 µM | 26.3% | – |
| Phac-Lys-Lys-Arg-NH2 (peptide) | 2.47 µM | – | – | – |
| N=C(N)NCCC[C@H](NC(=O)[C@H](CCCCN)NC(=O)[C@H](CCCCN)NC(=O)Cc1ccc(CNC(=N)N)cc1)C(N)=O [inhibitor 38, 4-(guanidinomethyl)-phenylacetyl-Lys-Lys-Arg-NH2] | – | 0.11 µM | 65% | – |
| N=C(N)NCCC[C@H](NC(=O)[C@H](CCCCN)NC(=O)[C@H](CCCCN)NC(=O)Cc1ccccc1)C(=O)N1CCC[C@H]1C(N)=O [inhibitor 23] (HELM PEPTIDE1{[O=C(Cc1ccccc1)[*:2]].K.K.R.P.[am]}$$$$V2.0) | – | 200 µM | 5.2% | – |
| Phac-Lys-Lys-Arg-Sar-NH2 (peptide) | 50 µM | – | – | – |
| D/L-α-phenylglycine-Lys-Lys-Arg-NH2 (peptide) | 3.6 µM | – | – | – |
| Phac-Lys-Lys-Arg-Gly-NH2 (peptide) | 2.56 µM | – | – | – |
| Phac-Lys-Lys-Arg-Aca-NH2 (peptide) | 17 µM | – | – | – |
| 4-AMe-Phac-Lys-Lys-Arg-NH2 (peptide) | 0.38 µM | – | – | – |
| 3,4-Cl2-Phac-Lys-Lys-Arg-Gly-NH2 (peptide) | 1.8 µM | – | – | – |
| α-Cyclohexylglycine-Lys-Lys-Arg-NH2 (peptide) | 26.3 µM | – | – | – |
| N=C(N)NCCC[C@H](NC(=O)[C@H](CCCCN)NC(=O)[C@H](CCCCN)NC(=O)C(N)C1CCCCC1)C(N)=O (stereo partly drawn) [inhibitor 42] (HELM PEPTIDE1{[NC(C(=O)[*:2])C1CCCCC1].K.K.R.[am]}$$$$V2.0) | – | – | 31.7% | – |
| Phac-Lys-Lys-Arg-Val-NH2 (peptide) | 105 µM | – | – | – |
| 3,4-Cl2-Phac-Lys-Lys-Arg-NH2 (peptide) | 1.13 µM | – | – | – |
| AC-D/L-α-phenylglycine-Lys-Lys-Arg-NH2 (peptide) | 4.18 µM | – | – | – |
| B1 | 1.56 µM | – | – | – |
